From patent US20250144067A1, “PERSONALIZED STARVATION THERAPY FOR CANCER” (Faeth Therapeutics, Inc., priority 2021, published 2025)
Structures can show the parent of a compound that is named as a salt. Where two headings read alike, the source gives them in different places.

Assays:
[1] = tested on: NCI-H292 lung cancer cells; experiment: FDA drug screening, complete media vs cholesterol-free media with simvastatin (TABLE 2); assay type: cell-based, human
[2] = tested on: NCI-H292 lung cancer cells; experiment: FDA drug screening, complete media vs cholesterol-free media without statin (TABLE 1); assay type: cell-based, human
[3] = NCI-H292 cells, drug in cholesterol-free media with simvastatin 0.04 μM
[4] = NCI-H292 cells, drug in complete media
[5] = complete media vs cholesterol-free media + simvastatin (0.04 μM), >0 enhanced anti-cancer activity, about 0 neutral, <0 antagonist
[6] = Complete minus Cholesterol-free, >0 enhanced anti-cancer activity, about 0 neutral, <0 antagonist
[7] = NCI-H292 cells, cholesterol-free media without statin, FDA drug library screen
[8] = NCI-H292 cells, complete media, FDA drug library screen
[9] = NCI-H292 cells, cholesterol-free media with simvastatin 0.04 μM, FDA drug library screen (TABLE 2)
[10] = NCI-H292 cells, complete media, FDA drug library screen (TABLE 2)
[11] = complete media minus cholesterol-free media + simvastatin (0.04 μM), >0 enhanced anti-cancer activity, about 0 neutral, <0 antagonist
[12] = Complete minus Cholesterol-free, greater than 0 enhanced anti-cancer activity, about 0 neutral, below 0 antagonist
[13] = NCI-H292 cells, FDA drug library screen, cholesterol-free media without statin
[14] = NCI-H292 cells, FDA drug library screen, complete media
[15] = NCI-H292 cells, FDA library drug in cholesterol-free media with simvastatin 0.04 μM
[16] = NCI-H292 cells, FDA library drug in complete media
[17] = complete vs cholesterol-free media, >0 enhanced anti-cancer activity, about 0 neutral, <0 antagonist
[18] = NCI-H292 cells, FDA drug library screen, cholesterol-free media with simvastatin 0.04 μM
[19] = NCI-H292 cells, cholesterol-free media with simvastatin 0.04 μM, cell growth value in FDA drug screen
[20] = NCI-H292 cells, complete media, cell growth value in FDA drug screen
[21] = complete media minus cholesterol-free media + simvastatin, >0 enhanced anti-cancer activity, about 0 neutral, <0 antagonist
[22] = complete media vs cholesterol-free media + simvastatin (0.04 μM), […]
[23] = NCI-H292 cells, cholesterol-free media without statin
[24] = complete vs cholesterol-free media, […]
[25] = Complete minus Cholesterol-free, […]
[26] = NCI-H292 cells in cholesterol-free media without statin
[27] = NCI-H292 cells in complete media
[28] = Complete minus Cholesterol-free, greater than 0 enhanced anti-cancer activity, about 0 neutral, below 0 antagonists

CCCN(CCC)S(=O)(=O)c1ccc(C(=O)O)cc1 [Probenecid]
Cholesterol-free media + simvastatin (0.04 μM) [1, 3]: 1.512
Complete Media [1, 4]: 1.266
Difference [1, 5]: −0.25
Difference [2, 6]: −0.02
Cholesterol-free [2, 7]: 0.9245
Complete [2, 8]: 0.9089

Cc1cccc(Nc2ccncc2S(=O)(=O)NC(=O)NC(C)C)c1 [Torsemide]
Cholesterol-free media + simvastatin (0.04 μM) [1, 9]: 1.055
Complete Media [1, 10]: 0.9909
Difference [1, 11]: −0.06
Difference [2, 12]: −0.16
Cholesterol-free [2, 13]: 1.07
Complete [2, 14]: 0.914

C[C@]12CC[C@H](O)CC1=CC[C@@H]1[C@@H]2CC[C@]2(C)C(c3cccnc3)=CC[C@@H]12 [Abiraterone]
Cholesterol-free media + simvastatin (0.04 μM) [1, 15]: 1.907
Complete Media [1, 16]: 1.473
Difference [1, 5]: −0.43
Cholesterol-free [2, 7]: 1.119
Complete [2, 8]: 1.371
Difference [2, 17]: 0.25

CCCN(CCc1cccs1)[C@H]1CCc2c(O)cccc2C1 [Rotigotine (Hydrochloride)]
Cholesterol-free media + simvastatin (0.04 μM) [1, 18]: 0.8026
Complete Media [1, 14]: 0.6752
Difference [1, 5]: −0.13
Difference [2, 12]: −0.08
Cholesterol-free [2, 13]: 0.8788
Complete [2, 14]: 0.7943

C=C(CC)C(=O)c1ccc(OCC(=O)O)c(Cl)c1Cl [Ethacrynic acid]
Cholesterol-free media + simvastatin (0.04 μM) [1, 19]: 1.155
Complete Media [1, 20]: 1.268
Difference [1, 21]: 0.11
Cholesterol-free [2, 7]: 0.8126
Complete [2, 8]: 0.956
Difference [2, 17]: 0.14

O=C1CCC[C@@H]2[C@H]3CCCN4CCC[C@H](CN12)[C@@H]34 [Sophoridine]
Cholesterol-free media + simvastatin (0.04 μM) [1, 15]: 1.337
Complete Media [1, 16]: 1.063
Difference [1, 22]: −0.27
Cholesterol-free [2, 23]: 1.507
Complete ([2]; NCI-H292 cells, complete media): 1.042
Difference [2, 24]: −0.46

NC(=O)CCC(N)C(=O)O (racemic) [DL-Glutamine]
Cholesterol-free media + simvastatin (0.04 μM) [1, 15]: 0.9407
Complete Media [1, 16]: 0.6307
Difference [1, 5]: −0.31
Difference [2, 12]: −0.07
Cholesterol-free [2, 13]: 1.771
Complete [2, 14]: 1.698

C=CCc1ccc(O)c(-c2cc(CC=C)ccc2O)c1 [Magnolol]
Cholesterol-free media + simvastatin (0.04 μM) [1, 3]: 1.293
Complete Media [1, 4]: 1.087
Difference [1, 22]: −0.21
Cholesterol-free [2, 7]: 0.6495
Complete [2, 8]: 1.053
Difference [2, 24]: 0.40

COc1ccnc(C[S+]([O-])c2nc3ccc(OC(F)F)cc3[nH]2)c1OC (centres unmarked) [Pantoprazole (sodium hydrate)]
Cholesterol-free media + simvastatin (0.04 μM) [1, 18]: 1.494
Complete Media [1, 14]: 1.718
Difference [1, 21]: 0.22
Cholesterol-free [2, 23]: 1.314
Complete ([2]; NCI-H292 cells, complete media): 0.9437
Difference ([2]; complete vs cholesterol-free media, greater than 0 enhanced anti-cancer activity, about 0 neutral, below 0 antagonists): −0.37

COc1ccc([C@@H]2CC(=O)c3c(O)cc(O[C@@H]4O[C@H](CO[C@@H]5O[C@@H](C)[C@H](O)[C@@H](O)[C@H]5O)[C@@H](O)[C@H](O)[C@H]4O)cc3O2)cc1O [Hesperidin]
Cholesterol-free media + simvastatin (0.04 μM) [1, 18]: 1.822
Complete Media [1, 14]: 1.671
Difference [1, 22]: −0.15
Difference [2, 25]: −0.08
Cholesterol-free [2, 13]: 1.106
Complete [2, 14]: 1.03

CCOC(=O)C1=C(C)NC(C)=C(C(=O)OCC)C1c1ccccc1/C=C/C(=O)OC(C)(C)C [Lacidipine]
Cholesterol-free media + simvastatin (0.04 μM) [1, 15]: 1.8
Complete Media [1, 16]: 0.96
Difference [1, 5]: −0.84
Difference [2, 6]: −0.07
Cholesterol-free [2, 7]: 1.081
Complete [2, 8]: 1.013

O=C(OCC(O)CO)c1ccccc1Nc1ccnc2cc(Cl)ccc12 (centres unmarked) [Glafenine]
Cholesterol-free media + simvastatin (0.04 μM) [1]: 0.9477
Complete Media [1]: 1.068
Difference [1]: 0.12
Cholesterol-free [2]: 1.288
Difference [2]: −0.12

COc1ccccc1Oc1c(NS(=O)(=O)c2ccc(C(C)(C)C)cc2)nc(-c2ncccn2)nc1OCCO [Bosentan]
Cholesterol-free media + simvastatin (0.04 μM) [1, 9]: 1.122
Complete Media [1, 10]: 1.122
Difference [1, 11]: 0.00
Difference [2, 6]: −0.05
Cholesterol-free [2, 7]: 1.038
Complete [2, 8]: 0.9904

O=C1Nc2ccccc2/C1=C1/Nc2ccccc2C1=O [Indirubin]
Cholesterol-free media + simvastatin (0.04 μM) [1, 15]: 0.8483
Complete Media [1, 16]: 0.5782
Difference [1, 5]: −0.27
Difference [2, 6]: −0.04
Cholesterol-free [2, 7]: 0.7727
Complete [2, 8]: 0.7337

COc1ccc2cc([C@H](C)C(=O)O)ccc2c1 [Naproxen]
Cholesterol-free media + simvastatin (0.04 μM) [1, 19]: 0.9241
Complete Media [1, 20]: 1.007
Difference [1, 21]: 0.08
Difference [2, 6]: −0.23
Cholesterol-free [2, 23]: 1.155
Complete ([2]; NCI-H292 cells, complete media): 0.9257

CC[C@@]1(O)C(=O)OCc2c1cc1n(c2=O)Cc2cc3c(CN(C)C)c(O)ccc3nc2-1 [Topotecan (Hydrochloride)]
Cholesterol-free media + simvastatin (0.04 μM) [1, 18]: 0.1355
Complete Media [1, 14]: 0.04638
Difference [1, 5]: −0.09
Difference [2, 6]: −0.03
Cholesterol-free [2, 7]: 0.05524
Complete [2, 8]: 0.02609

[H]/N=C(\N/C(=N/[H])NCCCCCCNC(=N)NC(=N)Nc1ccc(Cl)cc1)Nc1ccc(Cl)cc1 [Chlorhexidine (digluconate)]
Cholesterol-free media + simvastatin (0.04 μM) [1, 9]: 1.008
Complete Media [1, 10]: 0.9694
Difference [1, 11]: −0.04
Cholesterol-free [2, 7]: 0.8244
Complete [2, 8]: 0.943
Difference [2, 17]: 0.12

Clc1ccc(C(Cn2ccnc2)OCc2ccsc2Cl)c(Cl)c1 (centres unmarked) [Tioconazole]
Cholesterol-free media + simvastatin (0.04 μM) [1, 18]: 0.669
Complete Media [1, 14]: 0.9672
Difference [1, 21]: 0.30
Difference [2, 6]: −0.27
Cholesterol-free [2, 23]: 1.207
Complete ([2]; NCI-H292 cells, complete media): 0.9413

CCCCC(F)(F)[C@@]1(O)CC[C@H]2[C@@H](CC(=O)[C@@H]2CCCCCCC(=O)O)O1 [Lubiprostone]
Cholesterol-free media + simvastatin (0.04 μM) [1, 18]: 1.061
Complete Media [1, 14]: 1.267
Difference [1, 21]: 0.21
Difference [2, 6]: −0.28
Cholesterol-free [2, 23]: 1.064
Complete ([2]; NCI-H292 cells, complete media): 0.7833

Chondroitin (sulfate)
Cholesterol-free media + simvastatin (0.04 μM) ([1]; NCI-H292 cells, cholesterol-free media with simvastatin 0.04 μM, […]): 1.097
Complete Media ([1]; NCI-H292 cells, complete media, […]): 1.158
Difference ([1]; complete media minus cholesterol-free media + simvastatin, […]): 0.06
Difference [2, 25]: −0.48
Cholesterol-free [2, 26]: 1.247
Complete [2, 27]: 0.7715

CCCCOc1cc(C(=O)NCCN(CC)CC)c2ccccc2n1 [Dibucaine]
Cholesterol-free media + simvastatin (0.04 μM) [1, 19]: 0.8438
Complete Media [1, 20]: 0.9323
Difference [1, 21]: 0.09
Difference [2, 28]: −0.63
Cholesterol-free [2, 26]: 1.382
Complete [2, 27]: 0.749

COC(=O)CCC(=O)CN [Methyl aminolevulinate (hydrochloride)]
Cholesterol-free media + simvastatin (0.04 μM) [1, 18]: 1.272
Complete Media [1, 14]: 1.627
Difference [1, 21]: 0.35
Difference [2, 28]: −0.59
Cholesterol-free [2, 26]: 1.473
Complete [2, 27]: 0.886

CN1CCN2c3ncccc3Cc3ccccc3C2C1 (centres unmarked) [Mirtazapine]
Cholesterol-free media + simvastatin (0.04 μM) [1, 9]: 0.9802
Complete Media [1, 10]: 0.914
Difference [1, 11]: −0.07
Difference [2, 12]: −0.17
Cholesterol-free [2, 13]: 1.176
Complete [2, 14]: 1.005

Cc1nnc(SCC2=C(C(=O)O)N3C(=O)[C@@H](NC(=O)Cn4cnnn4)[C@H]3SC2)s1 [Cefazolin]
Cholesterol-free media + simvastatin (0.04 μM) [1, 18]: 1.197
Complete Media [1, 14]: 1.069
Difference [1, 5]: −0.13
Difference [2, 28]: −0.54
Cholesterol-free [2, 26]: 1.603
Complete [2, 27]: 1.065

COC(=O)N[C@@H](C)CNc1nccc(-c2cn(C(C)C)nc2-c2cc(Cl)cc(NS(C)(=O)=O)c2F)n1 [Encorafenib]
Cholesterol-free media + simvastatin (0.04 μM) [1, 9]: 0.6063
Complete Media [1, 10]: 0.5501
Difference [1, 11]: −0.06
Difference [2, 6]: −0.19
Cholesterol-free [2, 23]: 0.5021
Complete ([2]; NCI-H292 cells, complete media): 0.3116

Nc1ccn([C@@H]2O[C@H](CO)[C@@H](O)[C@@H]2O)c(=O)n1 [Cytarabine (hydrochloride)]
Cholesterol-free media + simvastatin (0.04 μM) [1, 9]: 0.3553
Complete Media [1, 10]: 0.3011
Difference [1, 11]: −0.05
Difference [2, 12]: −0.08
Cholesterol-free [2, 13]: 0.1883
Complete [2, 14]: 0.1064

Nc1ncnc2c1ncn2[C@@H]1O[C@H](COP(=O)(O)OP(=O)(O)OP(=O)(O)O)[C@@H](O)[C@H]1O [ATP]
Cholesterol-free media + simvastatin (0.04 μM) [1, 3]: 1.049
Complete Media [1, 4]: 0.8041
Difference [1, 5]: −0.24
Difference [2, 12]: −0.10
Cholesterol-free [2, 13]: 1.57
Complete [2, 14]: 1.466

NCC(=O)O [Glycine]
Cholesterol-free media + simvastatin (0.04 μM) [1, 15]: 1.249
Complete Media [1, 16]: 0.983
Difference [1, 5]: −0.27
Difference [2, 28]: −0.56
Cholesterol-free [2, 26]: 1.569
Complete [2, 27]: 1.011
